In the supplement of paper PMC10307832:

Key:
Assay in all cases: relative viability (nuclei count vs DMSO), 5 days (fraction); higher = more cells survive
Dasatinib + Navitoclax = compound: Cc1nc(Nc2ncc(C(=O)Nc3c(C)cccc3Cl)s2)cc(N2CCN(CCO)CC2)n1 [Dasatinib] + CC1(C)CCC(c2ccc(Cl)cc2)=C(CN2CCN(c3ccc(C(=O)NS(=O)(=O)c4ccc(N[C@H](CCN5CCOCC5)CSc5ccccc5)c(S(=O)(=O)C(F)(F)F)c4)cc3)CC2)C1 [Navitoclax] (partner 0.5 µM)
Procedure, shortened: (§1)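 Lung cancer cell lines, seeded in 1536-well plates, were treated the following day by pin tool with a single drug or with five library-drug doses (not always all listed) in √10 steps on top of a fixed anchor-drug dose. Cells were fixed and nuclei stained in one step after 5 days, and nuclei were counted. Relative viability is the nuclei count for treated wells divided by that for vehicle wells, reported as medians of duplicate plates.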

Dasatinib + Alpelisib = compound: Cc1nc(Nc2ncc(C(=O)Nc3c(C)cccc3Cl)s2)cc(N2CCN(CCO)CC2)n1 [Dasatinib] + Cc1nc(NC(=O)N2CCC[C@H]2C(N)=O)sc1-c1ccnc(C(C)(C)C(F)(F)F)c1 [Alpelisib] (partner 2 µM)
Procedure, shortened: as §1

XMD13-2 + Vorinostat = compound: C1CC1C(=O)NC2=NNC3=C2C=CC(=C3)C4=CC(=CC=C4)C(=O)NC5CC5 [XMD13-2] + O=C(CCCCCCC(=O)Nc1ccccc1)NO [Vorinostat] (partner 1 µM)
Procedure, shortened: as §1

ALW-II-49-7 + Linsitinib = compound: Cc1ccc(C(=O)Nc2cccc(C(F)(F)F)c2)cc1Nc1cncc(C(N)=O)c1 [ALW-II-49-7] + C[C@]1(O)C[C@@H](c2nc(-c3ccc4ccc(-c5ccccc5)nc4c3)c3c(N)nccn32)C1 [Linsitinib] (partner 1 µM)
Procedure, shortened: as §1

Cell Line: UMC-11
- relative viability (Dasatinib + Navitoclax; first compound 0.005 µM): 0.308
- relative viability (Dasatinib + Navitoclax; first compound 0.01581 µM): 0.247
- relative viability (Dasatinib + Navitoclax; first compound 0.05 µM): 0.275
- relative viability (Dasatinib + Navitoclax; first compound 0.1581 µM): 0.246
- relative viability (Dasatinib + Navitoclax; first compound 0.5 µM): 0.241
- relative viability (Dasatinib + Alpelisib; first compound 0.005 µM): 0.988
- relative viability (Dasatinib + Alpelisib; first compound 0.01581 µM): 0.768
- relative viability (Dasatinib + Alpelisib; first compound 0.05 µM): 0.752
- relative viability (Dasatinib + Alpelisib; first compound 0.1581 µM): 0.347
- relative viability (Dasatinib + Alpelisib; first compound 0.5 µM): 0.264
- relative viability (XMD13-2 + Vorinostat; first compound 0.05 µM): 0.356
- relative viability (XMD13-2 + Vorinostat; first compound 0.1581 µM): 0.413
- relative viability (XMD13-2 + Vorinostat; first compound 0.5 µM): 0.459
- relative viability (XMD13-2 + Vorinostat; first compound 1.581 µM): 0.396
- relative viability (XMD13-2 + Vorinostat; first compound 5 µM): 0.318
- relative viability (ALW-II-49-7 + Linsitinib; first compound 0.08 µM): 0.989
- relative viability (ALW-II-49-7 + Linsitinib; first compound 0.253 µM): 0.902
- relative viability (ALW-II-49-7 + Linsitinib; first compound 2.53 µM): 1.12
- relative viability (ALW-II-49-7 + Linsitinib; first compound 8 µM): 1.04
